Experimental data reported in ChEMBL document CHEMBL1147729, “(+)-(2R,5S)-4-[4-cyano-3-(trifluoromethyl)phenyl]-2,5-dimethyl-N-[6-(trifluoromethyl)pyridin-3-yl]piperazine-1-carboxamide (YM580) as an orally potent and peripherally selective nonsteroidal androgen receptor antagonist” (J Med Chem, 2006).

Tests used:
Rattus norvegicus [1] = assay: Effect on ventral prostate weight with reference to control in Wistar rat at 10 mg/kg/day, po; type: functional, Prostate gland; details: Rattus norvegicus, Wistar, Prostate gland
[2] = AUC (0-72)hrs in rat ventral prostate at 3 mg/kg, po; type: ADME, organism-based, Prostate gland; parameters: time < 72 hr, dose 3 mg/kg, route oral
[3] = AUC (0-72)hrs in rat plasma at 3 mg/kg, po; type: ADME, organism-based; parameters: time < 72 hr, dose 3 mg/kg, route oral
Estrogen receptor = target: T1, Estrogen receptor (Homo sapiens, UniProt P03372); assay: Inhibition of human ERalpha
T1 sequence (P03372 whole entry): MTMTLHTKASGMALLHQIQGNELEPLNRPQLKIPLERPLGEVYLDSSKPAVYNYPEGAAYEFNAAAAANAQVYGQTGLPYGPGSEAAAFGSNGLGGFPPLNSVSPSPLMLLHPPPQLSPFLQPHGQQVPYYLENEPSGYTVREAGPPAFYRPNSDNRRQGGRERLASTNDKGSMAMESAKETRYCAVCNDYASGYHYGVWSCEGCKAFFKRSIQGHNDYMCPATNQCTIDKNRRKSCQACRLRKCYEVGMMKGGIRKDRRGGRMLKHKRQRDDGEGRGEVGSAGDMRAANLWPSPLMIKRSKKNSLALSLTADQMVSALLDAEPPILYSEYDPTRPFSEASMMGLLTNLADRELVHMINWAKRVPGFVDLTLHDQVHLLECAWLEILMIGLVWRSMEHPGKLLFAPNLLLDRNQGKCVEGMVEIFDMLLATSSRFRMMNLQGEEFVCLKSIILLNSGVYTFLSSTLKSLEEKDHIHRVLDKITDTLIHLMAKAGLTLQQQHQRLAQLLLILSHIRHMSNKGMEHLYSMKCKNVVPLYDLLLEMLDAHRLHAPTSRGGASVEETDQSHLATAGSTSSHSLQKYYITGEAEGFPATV

Glucocorticoid receptor = target: T2, Glucocorticoid receptor (Homo sapiens, UniProt P04150); assay: Inhibition of human GR
T2 sequence (P04150 whole entry): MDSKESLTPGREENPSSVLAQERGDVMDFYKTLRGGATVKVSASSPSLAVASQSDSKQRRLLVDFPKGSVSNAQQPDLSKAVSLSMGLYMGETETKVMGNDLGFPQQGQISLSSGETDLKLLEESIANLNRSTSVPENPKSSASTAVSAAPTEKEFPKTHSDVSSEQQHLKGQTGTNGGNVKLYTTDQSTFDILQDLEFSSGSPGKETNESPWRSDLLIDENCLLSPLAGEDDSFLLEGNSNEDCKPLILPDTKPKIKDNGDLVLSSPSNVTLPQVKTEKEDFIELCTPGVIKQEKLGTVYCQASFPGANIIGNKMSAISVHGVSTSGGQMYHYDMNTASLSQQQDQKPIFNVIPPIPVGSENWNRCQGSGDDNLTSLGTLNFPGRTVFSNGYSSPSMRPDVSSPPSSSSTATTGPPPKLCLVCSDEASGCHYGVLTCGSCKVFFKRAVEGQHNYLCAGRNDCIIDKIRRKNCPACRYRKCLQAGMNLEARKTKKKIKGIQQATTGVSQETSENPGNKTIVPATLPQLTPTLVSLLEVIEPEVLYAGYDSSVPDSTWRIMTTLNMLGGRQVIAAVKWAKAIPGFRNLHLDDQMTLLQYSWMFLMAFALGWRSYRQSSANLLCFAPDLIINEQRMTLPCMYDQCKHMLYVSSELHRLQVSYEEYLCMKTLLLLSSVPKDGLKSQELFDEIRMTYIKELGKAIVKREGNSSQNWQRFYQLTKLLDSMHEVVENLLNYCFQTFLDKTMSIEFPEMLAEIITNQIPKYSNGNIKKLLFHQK

[4] = Half life in rat ventral prostate at 3 mg/kg, po; type: ADME, organism-based, Prostate gland; parameters: dose 3 mg/kg, route oral
[5] = Cmax in rat ventral prostate at 3 mg/kg, po; type: ADME, organism-based, Prostate gland; parameters: dose 3 mg/kg, route oral
[6] = Oral clearance in rat ventral prostate at 3 mg/kg, po; type: ADME, organism-based, Prostate gland; parameters: dose 3 mg/kg, route oral
[7] = Half life in rat plasma at 3 mg/kg, po; type: ADME, organism-based; parameters: dose 3 mg/kg, route oral
[8] = Cmax in rat hypothalamus at 3 mg/kg, po; type: ADME, organism-based; parameters: dose 3 mg/kg, route oral
[9] = Cmax in rat plasma at 3 mg/kg, po; type: ADME, organism-based; parameters: dose 3 mg/kg, route oral
Rattus norvegicus [10] = assay: Effect on ventral prostate weight with reference to control in Wistar rat at 30 mg/kg/day, po; type: functional; details: Prostate gland
[11] = Oral clearance in rat at 3 mg/kg, po; type: ADME, organism-based; parameters: dose 3 mg/kg, route oral; details: in vivo
Progesterone receptor = target: T3, Progesterone receptor (Rattus norvegicus, UniProt Q63449); assay: Inhibition of rat PR
T3 sequence (Q63449 whole entry): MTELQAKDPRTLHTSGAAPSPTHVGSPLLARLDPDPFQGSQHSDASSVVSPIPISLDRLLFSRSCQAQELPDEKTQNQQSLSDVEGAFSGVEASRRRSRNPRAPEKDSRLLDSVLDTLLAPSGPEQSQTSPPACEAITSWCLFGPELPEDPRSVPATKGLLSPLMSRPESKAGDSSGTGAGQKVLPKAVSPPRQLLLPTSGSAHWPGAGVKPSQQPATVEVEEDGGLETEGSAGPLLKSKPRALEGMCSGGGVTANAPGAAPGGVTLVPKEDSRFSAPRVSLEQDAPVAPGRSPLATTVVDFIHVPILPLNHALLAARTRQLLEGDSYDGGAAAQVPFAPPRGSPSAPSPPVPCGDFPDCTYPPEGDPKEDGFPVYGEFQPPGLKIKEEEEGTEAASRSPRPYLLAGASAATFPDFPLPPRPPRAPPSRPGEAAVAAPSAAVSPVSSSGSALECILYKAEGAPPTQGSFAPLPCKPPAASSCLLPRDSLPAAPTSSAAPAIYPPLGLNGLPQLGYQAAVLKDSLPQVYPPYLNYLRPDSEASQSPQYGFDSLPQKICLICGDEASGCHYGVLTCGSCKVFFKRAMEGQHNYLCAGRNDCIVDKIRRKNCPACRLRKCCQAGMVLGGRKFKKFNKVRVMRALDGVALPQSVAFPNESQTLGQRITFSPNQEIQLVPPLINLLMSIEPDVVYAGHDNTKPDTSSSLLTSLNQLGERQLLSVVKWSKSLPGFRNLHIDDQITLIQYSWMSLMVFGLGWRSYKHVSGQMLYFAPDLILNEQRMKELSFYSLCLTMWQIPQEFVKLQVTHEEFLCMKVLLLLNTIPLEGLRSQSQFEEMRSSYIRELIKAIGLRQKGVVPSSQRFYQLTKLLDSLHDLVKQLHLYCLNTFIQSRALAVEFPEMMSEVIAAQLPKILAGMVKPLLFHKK

[12] = AUC (0-72)hrs in rat hypothalamus at 3 mg/kg, po; type: ADME, organism-based; parameters: time < 72 hr, dose 3 mg/kg, route oral

In the case of `C[C@@H]1CN(c2ccc(C#N)c(C(F)(F)F)c2)[C@@H](C)CN1C(=O)Nc1ccc(C(F)(F)F)nc1` (racemic), the inhibition in vivo at 10 mg/kg/day (Rattus norvegicus [1]) is reported as 67%, the AUC at 72 h [2] is reported as 43200 ng·h/mL and the AUC at 72 h [3] is reported as 22000 ng·h/mL. For the same compound, the Ki (Estrogen receptor) was greater than 100 µM, the Ki (Glucocorticoid receptor) was greater than 100 µM and the half-life [4] was 11.2 h. It also gave a Cmax [5] of 1560 ng/mL, a CL/F [6] of 1.14 mL/min/kg and a half-life [7] of 12.5 h. It also gave a Cmax [8] of 96 ng/mL, a Cmax [9] of 702 ng/mL and an ED50 (Rattus norvegicus [10]) of 2.2 mg/kg. The CL/F [11] was 2.22 mL/min/kg, the Ki (Progesterone receptor) was 3.3 µM and the AUC at 72 h [12] was 2580 ng·h/mL.
